TGI data for four compounds are collected here from PubChem BioAssay (NCI).

Holding throughout (assay): NCI tumour cell line growth inhibition, 48 h
Assay [1] concerns DLD-1 colon.
Assay [2] deals with DMS 114 small cell lung.
The test system of assay [3] is DMS 273 small cell lung.
For assay [4], the system named is HCC-2998 colon.
The subject of assay [5] is HOP-18 NSCLC.
Assay [6] relates to HS 578T breast.
The test system of assay [7] is HT29 colon.
Assay [8] deals with KM12 colon.
In assay [9] the test system is KM20L2 colon.
In assay [10] the test system is M19-MEL melanoma.
In assay [11] the test system is P388 leukemia.
The subject of assay [12] is P388/ADR leukemia.
The subject of assay [13] is SN12K1 renal.
Assay [14] relates to UO-31 renal.
Assay [15] concerns XF 498 CNS.
Assay [16] has as its system LXFL 529 NSCLC.
For assay [17], the system named is RXF-631 renal.
For assay [18], the system named is SNB-78 CNS.

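Compound exposure: 48 hours, 5 concentrations, 96-well plates. Definition used: TGI = concentration required for complete inhibition of growth.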

Take `CCOC(=O)C(N)CSC(=O)NC` (configuration not stated): the TGI was 474 µM in assay [1]; 147 µM in assay [2]; 375 µM in assay [3]; 644 µM in [4]; 686 µM in [5]; 782 µM in assay [6]. Besides, the TGI in assay [7] was determined as 399 µM; in assay [8], 460 µM; in assay [9], 507 µM; in assay [10], 157 µM; in assay [11], 102 µM; in assay [12], 104 µM. For the same compound, the figures for the TGI in [13], in assay [14] and in assay [15] were 112 µM, 602 µM and 289 µM, respectively.

`O=c1cc(-c2ccccc2)[nH]c2cc3c(cc12)OCO3`: the TGI in assay [1] is above 100 µM; in assay [3] it was 84.9 µM; in [4] it was 55.6 µM; in [5], above 100 µM; in assay [6], above 100 µM; in [7], above 46.4 µM. Further, the TGI in assay [8] is above 93.1 µM; in assay [9] it was 12.2 µM; in assay [16], above 100 µM; in assay [10], above 100 µM; in assay [17], above 100 µM; in assay [18], above 78.8 µM. Also, the TGI in assay [14] was above 100 µM; in assay [15] it was above 67.2 µM.

On to `CCOC(=O)C(N=Nc1ccc(S(N)(=O)=O)cc1)C(C)=O` (configuration not stated), for which the TGI in assay [1], in assay [2], in assay [3], in assay [4], in assay [5] and in [7] was above 100 µM throughout. Moreover, the TGI in [8], in assay [9], in assay [16], in assay [10], in assay [17] and in [18] was above 100 µM throughout. In addition, the TGI in [14] and in assay [15] was above 100 µM in each case.

On to `COc1cc2c(cc1OCc1ccccc1)CNCC2`, for which the TGI in [1], in assay [2], in [3], in [4], in assay [5] and in [7] was above 100 µM throughout. Further, the TGI in assay [8], in assay [9], in assay [16], in [10], in assay [17] and in assay [18] was above 100 µM in each case. The TGI in assay [14] and in assay [15] was above 100 µM each time.
